Test results published in patent US20250136596A1, “MEMBRANE-ASSOCIATED TYROSINE- AND THREONINE-SPECIFIC CDC2-INHIBITORY KINASE (PKMYT1) INHIBITORS AND USES THEREOF” (Insilico Medicine IP Limited, priority 2022, published 2025).

What follows are molecules tested against PKMYT1 (Homo sapiens (Human), UniProt Q99640) (assay: PKMYT1 HTRF Assay). Conditions: Tracer 178, GST-Tb; compound 10 μM to 0.5 nM; read-out: MYT1 HTRF IC50.
Chain of PKMYT1 (Q99640 whole entry): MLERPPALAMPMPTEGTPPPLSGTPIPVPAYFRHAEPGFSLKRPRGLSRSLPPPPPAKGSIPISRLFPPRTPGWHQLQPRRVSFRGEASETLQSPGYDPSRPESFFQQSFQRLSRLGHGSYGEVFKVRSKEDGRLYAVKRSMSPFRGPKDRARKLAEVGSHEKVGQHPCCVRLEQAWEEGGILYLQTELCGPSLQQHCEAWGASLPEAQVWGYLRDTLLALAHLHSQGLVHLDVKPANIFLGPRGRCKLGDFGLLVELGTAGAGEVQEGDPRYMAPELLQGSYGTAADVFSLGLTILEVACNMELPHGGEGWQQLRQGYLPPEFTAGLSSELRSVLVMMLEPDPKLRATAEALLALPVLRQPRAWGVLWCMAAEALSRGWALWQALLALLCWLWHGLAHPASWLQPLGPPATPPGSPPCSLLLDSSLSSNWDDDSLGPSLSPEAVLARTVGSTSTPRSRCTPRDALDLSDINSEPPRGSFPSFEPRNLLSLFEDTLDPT
Format: binding
Procedure: Example A: PKMYT1 HTRF Assay
Compound serial dilution is performed by Echo, and the final concentrations vary from 10 μM to 0.5 nM. This was filled by the addition of 5 μL/well of Enzyme solution to the assay plate containing the compound. The plate was centrifuged at 1000 rpm for 1 minute, and incubate 15 minutes at 25 ? . Then 5 μL/well of tracer solution (Tracer 178) was added to initiate the reaction, and incubate for 60 minutes at 25° C. Next 5 μL GST-Tb was added into the assay plate, the plate was centrifuged at 1000 rpm for 1 minute, and incubate for 15 minutes at 25 ? . The assay plate was read on Envision.
For Cc1ccc(O)c(C)c1-c1cnc2[nH]c(-c3cnc(N4CC(C)(O)C4)nc3)cc2c1Cl [Example 25, (S)-1-(5-(4-chloro-5-(3-hydroxy-2,6-dimethylphenyl)-1H-pyrrolo[2,3-b]pyridin-2-yl)pyrimidin-2-yl)-3-methylazetidin-3-ol], the IC50 was < 10 nM.
Cc1ncc(-c2cc3c(C)c(-c4c(C)ccc(O)c4C)cnc3[nH]2)cn1 [Example 26, (R)-2,4-dimethyl-3-(4-methyl-2-(2-methylpyrimidin-5-yl)-1H-pyrrolo[2,3-b]pyridin-5-yl)phenol] was tested, and the IC50 was < 10 nM.
For Cc1ncc(-c2[nH]c3ncc(-c4c(C)ccc(O)c4C)cc3c2C#N)cn1 [Example 27, 5-(3-hydroxy-2,6-dimethylphenyl)-2-(2-methylpyrimidin-5-yl)-1H-pyrrolo[2,3-b]pyridine-3-carbonitrile], the IC50 was 10 to 50 nM.
For Cc1cnc(-c2cc3cc(-c4c(C)ccc(O)c4C)cnc3[nH]2)cn1 [Example 29, 2,4-dimethyl-3-(2-(5-methylpyrazin-2-yl)-1H-pyrrolo[2,3-b]pyridin-5-yl)phenol], the IC50 was 50 to 500 nM.
Cc1ncc(-c2cc3c(N)c(-c4c(C)ccc(O)c4C)cnc3[nH]2)cn1 [Example 30, 3-(4-amino-2-(2-methylpyrimidin-5-yl)-1H-pyrrolo[2,3-b]pyridin-5-yl)-2,4-dimethylphenol] was tested, and the IC50 was 50 to 500 nM.
With Cc1ncc(-c2cc3c(C(F)(F)F)c(-c4c(C)ccc(O)c4C)cnc3[nH]2)cn1 [Example 31, (R)-2,4-dimethyl-3-(2-(2-methylpyrimidin-5-yl)-4-(trifluoromethyl)-1H-pyrrolo[2,3-b]pyridin-5-yl)phenol] the IC50 was < 10 nM.
Work on Cc1ncc(-c2cc3c(C(N)=O)c(-c4c(C)ccc(O)c4C)cnc3[nH]2)cn1 [Example 34, 5-(3-hydroxy-2,6-dimethylphenyl)-2-(2-methylpyrimidin-5-yl)-1H-pyrrolo[2,3-b]pyridine-4-carboxamide] yielded an IC50 of 50 to 500 nM.
Cc1ccc(O)c(C)c1-c1cnc2[nH]c(C3=CCCOC3)cc2c1C#N [Example 36, 2-(5,6-dihydro-2H-pyran-3-yl)-5-(3-hydroxy-2,6-dimethylphenyl)-1H-pyrrolo[2,3-b]pyridine-4-carbonitrile] was tested, and the IC50 was 10 to 50 nM.
For Cc1ccc(O)c(C)c1-c1cnc2[nH]c(-c3cnc(N4CCC(F)(F)C4)nc3)cc2c1C#N [Example 37, 2-(2-(3,3-difluoropyrrolidin-1-yl)pyrimidin-5-yl)-5-(3-hydroxy-2,6-dimethylphenyl)-1H-pyrrolo[2,3-b]pyridine-4-carbonitrile], the IC50 was < 10 nM.
Cc1ccc(O)c(C)c1-c1cnc2[nH]c(-c3cnc(N4CCC(F)(F)C4)nc3)c(Cl)c2c1C#N [Example 38, (R)-3-chloro-2-(2-(3,3-difluoropyrrolidin-1-yl)pyrimidin-5-yl)-5-(3-hydroxy-2,6-dimethylphenyl)-1H-pyrrolo[2,3-b]pyridine-4-carbonitrile] was tested, and the IC50 was < 10 nM.
Cc1ccc(O)c(C)c1-c1cnc2[nH]c(-c3cnc(N)nc3)cc2c1C#N [Example 39, (R)-2-(2-aminopyrimidin-5-yl)-5-(3-hydroxy-2,6-dimethylphenyl)-1H-pyrrolo[2,3-b]pyridine-4-carbonitrile] was tested, and the IC50 was < 10 nM.
For Cc1ccc(O)c(C)c1-c1cnc2[nH]c(-c3cnc(N)nc3)c(Cl)c2c1C#N [Example 40, (R)-2-(2-aminopyrimidin-5-yl)-3-chloro-5-(3-hydroxy-2,6-dimethylphenyl)-1H-pyrrolo[2,3-b]pyridine-4-carbonitrile], the IC50 was < 10 nM.
In the case of Cc1ccc(O)c(C)c1-c1cnc2[nH]c(-c3cnc(N4CC5CC4CO5)nc3)cc2c1C#N [Example 42, (R)-2-(2-((1S,4S)-2-oxa-5-azabicyclo[2.2.1]heptan-5-yl)pyrimidin-5-yl)-5-(3-hydroxy-2,6-dimethylphenyl)-1H-pyrrolo[2,3-b]pyridine-4-carbonitrile], the IC50 is reported as < 10 nM.
In the case of Cc1ccc(O)c(C)c1-c1cnc2[nH]c(-c3cnc(N4CC5CC4CO5)nc3)c(Cl)c2c1C#N (centres unmarked) [Example 44, 2-(2-(2-oxa-5-azabicyclo[2.2.1]heptan-5-yl)pyrimidin-5-yl)-3-chloro-5-(3-hydroxy-2,6-dimethylphenyl)-1H-pyrrolo[2,3-b]pyridine-4-carbonitrile], the IC50 is reported as < 10 nM.
With Cc1ccc(O)c(C)c1-c1cnc2[nH]c(-c3cnc(N4CC(O)C4)nc3)cc2c1C#N [Example 45, (R)-5-(3-hydroxy-2,6-dimethylphenyl)-2-(2-(3-hydroxyazetidin-1-yl)pyrimidin-5-yl)-1H-pyrrolo[2,3-b]pyridine-4-carbonitrile] the IC50 was < 10 nM.
In the case of Cc1ccc(O)c(C)c1-c1cnc2[nH]c(-c3cnc(N4CC(O)C4)nc3)c(Cl)c2c1C#N [Example 46, (R)-3-chloro-5-(3-hydroxy-2,6-dimethylphenyl)-2-(2-(3-hydroxyazetidin-1-yl)pyrimidin-5-y1)-1H-pyrrolo[2,3-b]pyridine-4-carbonitrile], the IC50 is reported as < 10 nM.
For Cc1ccc(O)c(C)c1-c1cnc2[nH]c(-c3cnc(NC4CC4)nc3)cc2c1C#N [Example 47, (R)-2-(2-(cyclopropylamino)pyrimidin-5-yl)-5-(3-hydroxy-2,6-dimethylphenyl)-1H-pyrrolo[2,3-b]pyridine-4-carbonitrile], the IC50 was < 10 nM.
With Cc1ccc(O)c(C)c1-c1cnc2[nH]c(-c3cnc(NC4CC4)nc3)c(Cl)c2c1C#N [Example 48, (R)-3-chloro-2-(2-(cyclopropylamino)pyrimidin-5-yl)-5-(3-hydroxy-2,6-dimethylphenyl)-1H-pyrrolo[2,3-b]pyridine-4-carbonitrile] the IC50 was < 10 nM.
Cc1ccc(O)c(C)c1-c1cnc2[nH]c(-c3cnc(N4CCC4)nc3)cc2c1C#N [Example 49, (R)-2-(2-(azetidin-1-yl)pyrimidin-5-y1)-5-(3-hydroxy-2,6-dimethylphenyl)-1H-pyrrolo[2,3-b]pyridine-4-carbonitrile] was tested, and the IC50 was < 10 nM.
For Cc1ccc(O)c(C)c1-c1cnc2[nH]c(-c3cnc(N(C)C)nc3)c(Cl)c2c1C#N [Example 50, (S)-3-chloro-2-(2-(dimethylamino)pyrimidin-5-yl)-5-(3-hydroxy-2,6-dimethylphenyl)-1H-pyrrolo[2,3-b]pyridine-4-carbonitrile], the IC50 was < 10 nM.
Cc1ccc(O)c(C)c1-c1cnc2[nH]c(-c3cnc(O)nc3)cc2c1C#N [Example 52, (R)-5-(3-hydroxy-2,6-dimethylphenyl)-2-(2-hydroxypyrimidin-5-yl)-1H-pyrrolo[2,3-b]pyridine-4-carbonitrile] was tested, and the IC50 was < 10 nM.
For Cc1ccc(O)c(C)c1-c1cnc2[nH]c(-c3cnc(OC4COC4)nc3)cc2c1C#N [Example 53, (S)-5-(3-hydroxy-2,6-dimethylphenyl)-2-(2-(oxetan-3-yloxy)pyrimidin-5-yl)-1H-pyrrolo[2,3-b]pyridine-4-carbonitrile], the IC50 was < 10 nM.
Cc1ccc(O)c(C)c1-c1cnc2[nH]c(-c3cnc(C(F)F)nc3)c(Cl)c2c1C#N [Example 54, (S)-3-chloro-2-(2-(difluoromethyl)pyrimidin-5-yl)-5-(3-hydroxy-2,6-dimethylphenyl)-1H-pyrrolo[2,3-b]pyridine-4-carbonitrile] was tested, and the IC50 was < 10 nM.
In the case of Cc1ccc(O)c(C)c1-c1cnc2[nH]c(-c3cnc(C(F)(F)F)nc3)cc2c1C#N [Example 55, 5-(3-hydroxy-2,6-dimethylphenyl)-2-(2-(trifluoromethyl)pyrimidin-5-yl)-1H-pyrrolo[2,3-b]pyridine-4-carbonitrile], the IC50 is reported as < 10 nM.
Cc1ccc(O)c(C)c1-c1cnc2[nH]c(-c3cnc(C4CC4)nc3)cc2c1C#N [Example 56, (S)-2-(2-cyclopropylpyrimidin-5-yl)-5-(3-hydroxy-2,6-dimethylphenyl)-1H-pyrrolo[2,3-b]pyridine-4-carbonitrile] was tested, and the IC50 was < 10 nM.
With Cc1ccc(O)c(C)c1-c1cnc2[nH]c(-c3cnc(C4CC4)nc3)c(Cl)c2c1C#N [Example 57, (S)-3-chloro-2-(2-cyclopropylpyrimidin-5-yl)-5-(3-hydroxy-2,6-dimethylphenyl)-1H-pyrrolo[2,3-b]pyridine-4-carbonitrile] the IC50 was < 10 nM.
In the case of Cc1ccc(O)c(C)c1-c1cnc2[nH]c(-c3cnc(CO)nc3)cc2c1C#N [Example 58, (S)-5-(3-hydroxy-2,6-dimethylphenyl)-2-(2-(hydroxymethyl)pyrimidin-5-yl)-1H-pyrrolo[2,3-b]pyridine-4-carbonitrile], the IC50 is reported as < 10 nM.
Cc1ncc(-c2cc3c(C#N)c(-c4c(C)ccc(O)c4C)cnc3[nH]2)s1 [Example 59, (R)-5-(3-hydroxy-2,6-dimethylphenyl)-2-(2-methylthiazol-5-yl)-1H-pyrrolo[2,3-b]pyridine-4-carbonitrile] was tested, and the IC50 was < 10 nM.
For Cc1ncc(-c2[nH]c3ncc(-c4c(C)ccc(O)c4C)c(C#N)c3c2Cl)s1 [Example 60, (R)-3-chloro-5-(3-hydroxy-2,6-dimethylphenyl)-2-(2-methylthiazol-5-yl)-1H-pyrrolo[2,3-b]pyridine-4-carbonitrile], the IC50 was < 10 nM.
Cc1ccc(O)c(C)c1-c1cnc2[nH]c(-c3cnc4[nH]cnc4c3)cc2c1C#N [Example 63, (R)-5-(3-hydroxy-2,6-dimethylphenyl)-2-(3H-imidazo[4,5-b]pyridin-6-y1)-1H-pyrrolo[2,3-b]pyridine-4-carbonitrile] was tested, and the IC50 was < 10 nM.
In the case of Cc1ccc(O)c(C)c1-c1cnc2[nH]c(-c3cnc(C)c(=O)[nH]3)c(Cl)c2c1C#N [Example 64, 3-chloro-5-(3-hydroxy-2,6-dimethylphenyl)-2-(5-methyl-6-oxo-1,6-dihydropyrazin-2-yl)-1H-pyrrolo[2,3-b]pyridine-4-carbonitrile], the IC50 is reported as 10 to 50 nM.
Cc1ccc(O)c(C)c1-c1cnc2[nH]c(-c3cnn(C)c(=O)c3)cc2c1C#N [Example 65, 5-(3-hydroxy-2,6-dimethylphenyl)-2-(1-methyl-6-oxo-1,6-dihydropyridazin-4-yl)-1H-pyrrolo[2,3-b]pyridine-4-carbonitrile] was tested, and the IC50 was < 10 nM.
